Key:
[1] = Compound was tested for antagonism of Prostaglandin E2 receptor activity in guinea pig ileum assay based on the dose ratio at 3 uM; conditions: read-out: pA2 (converted)
Mus musculus = assay: Compound was tested for analgesic activity in the mouse writhing assay at intragastric dose of 30 mg/Kg; format: functional; conditions: po

Row | Compound | Kb [1] [nM] | ED50 (Mus musculus) [mg/kg]
1 | O=C(CC[S+]([O-])Cc1ccco1)NNC(=O)N1Cc2ccccc2Oc2ccc(Cl)cc21 (configuration not stated) | 631 | 5
2 | O=C(CCSCc1ccco1)NNC(=O)N1Cc2ccccc2Oc2ccc(Cl)cc21 | – | 0.9
3 | O=C(CCCCCl)NNC(=O)N1Cc2ccccc2Oc2ccc(Cl)cc21 [PINADOLINE] | 631 | 9.8
4 | O=C(CCS(=O)(=O)Cc1ccco1)NNC(=O)N1Cc2ccccc2Oc2ccc(Cl)cc21 | 251 | 5

— ChEMBL document CHEMBL1127243, “8-chlorodibenz[b,f][1,4]oxazepine-10(11H)-carboxylic acid,2-[3-[2-(furanylmethyl)thio]-1-oxopropyl]hydrazide (SC-51322): A potent PGE2 antagonist and analgesic” (Bioorg Med Chem Lett, 1994)
